Data published in PubChem BioAssay (NCI).
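All cell lines were grown in 96-well plates and treated with compound for 48 hours. TGI: concentration producing complete growth inhibition.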

Assays:
Assay in all cases: growth of human tumour cells (NCI), 48 h
A498 renal = system: A498 renal
BT-549 breast = system: BT-549 breast
HOP-62 NSCLC = system: HOP-62 NSCLC
HOP-92 NSCLC = system: HOP-92 NSCLC
SK-MEL-2 melanoma = system: SK-MEL-2 melanoma
SK-MEL-5 melanoma = system: SK-MEL-5 melanoma

| Structure (SMILES) | TGI (A498 renal) | TGI (BT-549 breast) | TGI (HOP-62 NSCLC) | TGI (HOP-92 NSCLC) | TGI (SK-MEL-2 melanoma) | TGI (SK-MEL-5 melanoma) |
| --- | --- | --- | --- | --- | --- | --- |
| C/C(=N/NC(=S)Nc1ccccc1Cl)c1ccccn1 | 9.31 µM | 19.9 µM | 12.4 µM | 22.7 µM | 9.47 µM | 8.67 µM |
| COC(=O)c1ccccc1C1CN=NC12Cc1ccc3ccccc3c1C2=O (centres undefined) | > 100 µM | > 100 µM | – | > 100 µM | > 100 µM | > 100 µM |
| NC(=O)NC(=O)c1cnccn1 | > 100 µM | – | > 100 µM | > 100 µM | > 100 µM | – |
| Cc1cc2nc3n[nH]c(N)c3nc2cc1C | > 100 µM | > 100 µM | > 100 µM | > 100 µM | > 100 µM | – |
| CSC1=N/C(=C\c2ccc(C)cc2)C(=O)N1CN1CCOCC1 | > 100 µM | – | > 100 µM | > 100 µM | > 100 µM | > 100 µM |
| c1ccc2c(c1)ccc1nc(-c3ccc4c(c3)OCO4)c3c(c12)CCCC3 | 72.9 µM | > 100 µM | > 100 µM | – | > 100 µM | – |
| CCOC(=O)CN1CCNCCN(CC(=O)OCC)CCNCC1 | > 100 µM | > 100 µM | > 100 µM | > 100 µM | > 100 µM | > 100 µM |
| O=C(NN=C1CCN(Cc2ccccc2)CC1)C(O)(c1ccccc1)c1ccccc1 | – | – | > 100 µM | > 100 µM | – | > 100 µM |
| Brc1cccc(/C=C/CN2CCN(CCOC(c3ccccc3)c3ccccc3)CC2)c1 | 32 µM | 31.1 µM | 30.1 µM | 17.8 µM | 33.6 µM | 33.6 µM |
| COc1ccc2[nH]c(CCNC(=O)c3cc([N+](=O)[O-])cc([N+](=O)[O-])c3)cc2c1 | > 100 µM | > 100 µM | 60.6 µM | 93.8 µM | > 100 µM | > 100 µM |
| O=C(c1ccccc1)c1ccc(C(c2c(O)c3ccccc3oc2=O)c2c(O)c3ccccc3oc2=O)cc1 | 62.6 µM | 48.9 µM | > 57.3 µM | > 64.1 µM | > 71.3 µM | > 68.5 µM |
| CCN(CC)CCn1c(C(C)(C)C)nc2ccccc21 | – | > 100 µM | > 100 µM | > 100 µM | – | – |
| CC1C(c2ccc(F)cc2)c2cc3c(cc2OC1N1CCCC1)OCO3 (centres undefined) | – | – | > 100 µM | 45.7 µM | > 100 µM | > 100 µM |
| O=C(OCCN=C1c2ccccc2CCc2ccccc21)c1cc([N+](=O)[O-])cc([N+](=O)[O-])c1 | – | > 100 µM | > 31.6 µM | > 31.6 µM | > 31.6 µM | > 31.6 µM |
| CC(=O)ON(OC(C)=O)c1ccc(C)cc1 | > 100 µM | > 100 µM | > 100 µM | > 100 µM | > 100 µM | > 100 µM |
| S=c1[nH]nc(COc2ccc3c(c2)CCCC3)n1/N=C/c1ccc(Cl)cc1 | – | 31.3 µM | 32.3 µM | 32.9 µM | 36.2 µM | 29.3 µM |
| CCOC(=O)c1nc2cc(N3CCOCC3)c(F)cc2[nH]c1=O | > 100 µM | > 100 µM | > 100 µM | > 100 µM | > 100 µM | > 100 µM |
| Cc1ccc(/C=C2\CN(C)CC3=C2OC(N)=C(C#N)C3c2ccc(C)cc2)cc1 (centres undefined) | 45.2 µM | 40.1 µM | 52.7 µM | 15.9 µM | > 63.4 µM | > 100 µM |
| COC(CN(C)C(=O)C(C)NC(=O)c1ccccc1)OC (centres undefined) | – | > 100 µM | – | > 100 µM | > 100 µM | > 100 µM |
| Cc1[nH]c2ncn3nc(C(Cl)(Cl)Cl)nc3c2c1Cc1ccccc1 | > 100 µM | > 100 µM | > 100 µM | – | > 100 µM | > 100 µM |
| Cn1cc(C(=O)c2nccc3c2cnc2ccccc23)ccc1=O | > 100 µM | – | > 100 µM | > 100 µM | > 100 µM | > 100 µM |
| Cc1ccc(Nc2nc(=S)[nH]c3[nH]ncc23)cc1 | > 100 µM | > 100 µM | > 100 µM | > 100 µM | > 100 µM | > 100 µM |
| O=C(Cn1c(=O)ccn(C2OC(CO)C(O)C2F)c1=O)c1ccc(F)cc1 (centres undefined) | – | – | > 100 µM | – | – | > 100 µM |
| c1ccc(N=C2c3ccccc3CN2c2ccccc2)cc1 | – | > 100 µM | > 100 µM | > 100 µM | > 100 µM | > 100 µM |
| Cc1ccc(-c2c(C#N)c(-c3ccc(Cl)cc3)c(C#N)c(=O)n2NS(=O)(=O)c2ccccc2)cc1 | > 100 µM | > 100 µM | > 100 µM | > 100 µM | > 100 µM | > 100 µM |

| Structure (SMILES) | TGI (A498 renal) | TGI (BT-549 breast) | TGI (HOP-62 NSCLC) | TGI (HOP-92 NSCLC) | TGI (SK-MEL-2 melanoma) | TGI (SK-MEL-5 melanoma) |
| --- | --- | --- | --- | --- | --- | --- |
| CC(=O)N=C(N=Nc1c(O)[nH]c2ccc(C)cc12)NC(C)=O | > 100 µM | > 100 µM | > 100 µM | > 100 µM | > 100 µM | > 100 µM |
| CC/C(=N\NC(=O)c1cccnc1)c1ccc2c(c1)OCCO2 | > 100 µM | > 100 µM | > 100 µM | – | > 100 µM | > 100 µM |
| CC(=O)OCC1OC(On2ccccc2=S)C(OC(C)=O)C(OC(C)=O)C1OC(C)=O (centres undefined) | > 100 µM | > 100 µM | > 100 µM | > 100 µM | > 100 µM | > 100 µM |
| O=C(O)CC(C(=O)O)c1ccccc1[N+](=O)[O-] (centres undefined) | > 100 µM | > 100 µM | > 100 µM | > 100 µM | > 100 µM | > 100 µM |
| CN1CCCN2CCN(C)CCN(CC1)CC2 | > 100 µM | > 100 µM | > 100 µM | > 100 µM | > 100 µM | > 100 µM |
| CCOP(=O)(OCC)C(NC(=O)OCC(Cl)(Cl)Cl)n1nnc(C(=O)OC)c1C(=O)OC (centres undefined) | > 100 µM | > 100 µM | > 100 µM | > 100 µM | > 100 µM | > 100 µM |
| CC(=O)/C(C=Nc1c(C)n(C)n(-c2ccccc2)c1=O)=C(/C)O | > 100 µM | > 100 µM | – | > 100 µM | > 100 µM | > 100 µM |
| CSc1ccc2c(cc1=O)[C@@H](NC(C)=O)CCc1cc(O)c(O)c(O)c1-2 | > 100 µM | 56.9 µM | 32.3 µM | 70.6 µM | > 100 µM | > 100 µM |
| COc1c(CC=C(C)C)c(O)c(C(CC(C)C)c2c(O)c(C(C)=O)c(O)c3c2OC(C(C)(C)O)C3)c(O)c1C(C)=O (centres undefined) | > 12.5 µM | 10.6 µM | – | 5.21 µM | – | 8.24 µM |
| CN(C)CCCNc1c(O)c2c(c(O)c1Cl)C(=O)C=CC2=O | > 10 µM | 2.94 µM | 7.87 µM | > 10 µM | – | 2.82 µM |
| CCOC(=O)CC(=O)NC1CC2CCC1(C)C2(C)C (centres undefined) | > 100 µM | > 100 µM | > 100 µM | – | – | > 100 µM |
| C[C@]12CC[C@@H]3c4ccc(O)cc4CC[C@H]3[C@@H]1C/C(=C\c1ccc([N+](=O)[O-])cc1)C2=O | > 100 µM | > 100 µM | > 100 µM | – | > 100 µM | > 100 µM |
| c1ccc(COc2ccc(CC3SCCCS3)cc2)cc1 | – | – | > 100 µM | 74.3 µM | – | > 100 µM |
| CCCCCCCCC[C@@H]1C[C@@H]2CCC3C(C(=O)OC)=C(C)NC(=N1)N32 (some centres undefined) | – | 24.4 µM | 26.9 µM | 27.3 µM | 26.5 µM | 20.4 µM |
| CC(C)=CCC[C@]1(C)CC[C@]2(C)C3CCC(=C(C)C)[C@@H](CCCO)[C@]3(C)CC[C@@]2(C)C1 (some centres undefined) | > 100 µM | > 100 µM | > 100 µM | – | 71.5 µM | > 100 µM |
| CN(C1=NCCO1)c1cccc2ccccc12 | > 10 µM | – | > 10 µM | – | > 10 µM | > 10 µM |
| CCC1(C)C=Cc2c(cc(OC)c3c(=O)c4ccccc4n(C)c23)O1 (centres undefined) | > 10 µM | > 10 µM | > 10 µM | > 10 µM | > 10 µM | > 10 µM |
| S=c1ssc2c3ssc(=S)c3n(Cc3ccccc3)c12 | > 100 µM | > 100 µM | > 100 µM | > 100 µM | > 100 µM | > 100 µM |
| O=c1c(O)c(-c2ccc(O)cc2O)oc2cc(O)cc(O)c12 | – | – | > 100 µM | > 100 µM | > 100 µM | > 100 µM |
| C=C(O)c1ccccc1C#Cc1ccccc1C(=O)OC | > 10 µM | > 10 µM | > 10 µM | – | > 10 µM | > 10 µM |
| CC(C)(C)OC(=O)[N+](=N)C(=O)C1CCC(=O)N1C(=O)OCc1ccccc1 (centres undefined) | – | > 100 µM | > 100 µM | > 100 µM | – | > 100 µM |
| CCN1CC2=C(N=c3s/c(=C\c4ccc(Cl)cc4)c(=O)n3C2c2ccc(Cl)cc2)/C(=C/c2ccc(Cl)cc2)C1 (centres undefined) | 64.6 µM | 85.8 µM | 90.4 µM | – | > 100 µM | > 100 µM |
| O=c1c2ccccc2nc2n1NC(c1c(Cl)cccc1Cl)N2c1cccc(Cl)c1 (centres undefined) | – | > 100 µM | > 100 µM | 21.8 µM | > 100 µM | 65.5 µM |
| Cc1ccc2c(c1)SSSSS2 | 35.1 µM | 39.1 µM | 38 µM | 34.5 µM | – | 35.8 µM |
| CC(C(=O)N1C(=O)N(C(=O)C(C)C(O)c2ccccc2)C(c2ccccc2)C1c1ccccc1)C(O)c1ccccc1 (centres undefined) | – | 38.8 µM | > 100 µM | 40.4 µM | 50.2 µM | – |
